Test results published in US8815882B2, “Pyrazole aminopyrimidine derivatives as LRRK2 modulators” (Genentech, Inc., priority 2010, dated 2014).

What follows are compounds tested against T1, LRRK2 (Homo sapiens, UniProt Q5S007, G2019S) (assay: In Vitro LRRK2 Assay (LabChip 3000, fluorescently-labeled peptide substrate, ATP)). Settings: Table 9; LRRK2 Ki (micromolar); read-out: LRRK2 Ki (KI).
T1 construct: purchased Invitrogen PV4882 (lot 567054A)
Format: biochemical
Procedure: This assay was used to determine a compound's potency in inhibiting activity of LRRK2 by determining, Kiapp, IC50, or percent inhibition values. In a polypropylene plate, LRRK2, fluorescently-labeled peptide substrate, ATP and test compound were incubated together. Using a LabChip 3000 (Caliper Life Sciences), after the reaction the substrate was separated by capillary electrophoresis into two populations: phosphorylated and unphosphorylated. The relative amounts of each were quantitated by fluorescence intensity. LRRK2 Ki was determined according to the equation: Y=V0*(1−(x+Ki*(1+S/Km)+Et)/(2*Et)−(((x+Ki*(1+S/Km)+Et)^2−(4*Et*x))^0.5)/(2*Et))). Ki values in Table 4 and elsewhere herein are shown in μM.
Assay conditions and materials used were as follows:
Compound Plate Preparation:
For serial dilutions, 34.6 μl DMSO was added to columns 3-24.
Total and Blank Preparation:
In Complete Reaction Buffer, substrate was diluted to 4 μM. Equal volumes of Complete Reaction Buffer and 4 μM substrate were combined to obtain the blank. Equal volumes of Complete Reaction Buffer and 4 μM substrate were combined and to the combined solution was added 2× final LRRK2 concentration.
To a 50 μl polypropylene plate, 5 μl/well buffer/substrate was added by hand to Blank wells. A Biomek FX was used to start the kinase reaction (“PLK SAR 23 ATP”). The following were added to the appropriate wells:
5 μl/well compound/ATP in Assay Plate;
5 μl/well kinase/substrate in Assay Plate;
The plate was incubated for 2 hours in the dark. Biomek FX was used to stop the kinase reaction (“PLK Stop”), and 10 μl/well Stop solution was added to the Assay Plate. Results were read on the LabChip 3000.
The LabChip 3000 was run using the job “LRRK2 IC50” with the following job settings: […]

T1 sequence (Q5S007 whole entry G2019S): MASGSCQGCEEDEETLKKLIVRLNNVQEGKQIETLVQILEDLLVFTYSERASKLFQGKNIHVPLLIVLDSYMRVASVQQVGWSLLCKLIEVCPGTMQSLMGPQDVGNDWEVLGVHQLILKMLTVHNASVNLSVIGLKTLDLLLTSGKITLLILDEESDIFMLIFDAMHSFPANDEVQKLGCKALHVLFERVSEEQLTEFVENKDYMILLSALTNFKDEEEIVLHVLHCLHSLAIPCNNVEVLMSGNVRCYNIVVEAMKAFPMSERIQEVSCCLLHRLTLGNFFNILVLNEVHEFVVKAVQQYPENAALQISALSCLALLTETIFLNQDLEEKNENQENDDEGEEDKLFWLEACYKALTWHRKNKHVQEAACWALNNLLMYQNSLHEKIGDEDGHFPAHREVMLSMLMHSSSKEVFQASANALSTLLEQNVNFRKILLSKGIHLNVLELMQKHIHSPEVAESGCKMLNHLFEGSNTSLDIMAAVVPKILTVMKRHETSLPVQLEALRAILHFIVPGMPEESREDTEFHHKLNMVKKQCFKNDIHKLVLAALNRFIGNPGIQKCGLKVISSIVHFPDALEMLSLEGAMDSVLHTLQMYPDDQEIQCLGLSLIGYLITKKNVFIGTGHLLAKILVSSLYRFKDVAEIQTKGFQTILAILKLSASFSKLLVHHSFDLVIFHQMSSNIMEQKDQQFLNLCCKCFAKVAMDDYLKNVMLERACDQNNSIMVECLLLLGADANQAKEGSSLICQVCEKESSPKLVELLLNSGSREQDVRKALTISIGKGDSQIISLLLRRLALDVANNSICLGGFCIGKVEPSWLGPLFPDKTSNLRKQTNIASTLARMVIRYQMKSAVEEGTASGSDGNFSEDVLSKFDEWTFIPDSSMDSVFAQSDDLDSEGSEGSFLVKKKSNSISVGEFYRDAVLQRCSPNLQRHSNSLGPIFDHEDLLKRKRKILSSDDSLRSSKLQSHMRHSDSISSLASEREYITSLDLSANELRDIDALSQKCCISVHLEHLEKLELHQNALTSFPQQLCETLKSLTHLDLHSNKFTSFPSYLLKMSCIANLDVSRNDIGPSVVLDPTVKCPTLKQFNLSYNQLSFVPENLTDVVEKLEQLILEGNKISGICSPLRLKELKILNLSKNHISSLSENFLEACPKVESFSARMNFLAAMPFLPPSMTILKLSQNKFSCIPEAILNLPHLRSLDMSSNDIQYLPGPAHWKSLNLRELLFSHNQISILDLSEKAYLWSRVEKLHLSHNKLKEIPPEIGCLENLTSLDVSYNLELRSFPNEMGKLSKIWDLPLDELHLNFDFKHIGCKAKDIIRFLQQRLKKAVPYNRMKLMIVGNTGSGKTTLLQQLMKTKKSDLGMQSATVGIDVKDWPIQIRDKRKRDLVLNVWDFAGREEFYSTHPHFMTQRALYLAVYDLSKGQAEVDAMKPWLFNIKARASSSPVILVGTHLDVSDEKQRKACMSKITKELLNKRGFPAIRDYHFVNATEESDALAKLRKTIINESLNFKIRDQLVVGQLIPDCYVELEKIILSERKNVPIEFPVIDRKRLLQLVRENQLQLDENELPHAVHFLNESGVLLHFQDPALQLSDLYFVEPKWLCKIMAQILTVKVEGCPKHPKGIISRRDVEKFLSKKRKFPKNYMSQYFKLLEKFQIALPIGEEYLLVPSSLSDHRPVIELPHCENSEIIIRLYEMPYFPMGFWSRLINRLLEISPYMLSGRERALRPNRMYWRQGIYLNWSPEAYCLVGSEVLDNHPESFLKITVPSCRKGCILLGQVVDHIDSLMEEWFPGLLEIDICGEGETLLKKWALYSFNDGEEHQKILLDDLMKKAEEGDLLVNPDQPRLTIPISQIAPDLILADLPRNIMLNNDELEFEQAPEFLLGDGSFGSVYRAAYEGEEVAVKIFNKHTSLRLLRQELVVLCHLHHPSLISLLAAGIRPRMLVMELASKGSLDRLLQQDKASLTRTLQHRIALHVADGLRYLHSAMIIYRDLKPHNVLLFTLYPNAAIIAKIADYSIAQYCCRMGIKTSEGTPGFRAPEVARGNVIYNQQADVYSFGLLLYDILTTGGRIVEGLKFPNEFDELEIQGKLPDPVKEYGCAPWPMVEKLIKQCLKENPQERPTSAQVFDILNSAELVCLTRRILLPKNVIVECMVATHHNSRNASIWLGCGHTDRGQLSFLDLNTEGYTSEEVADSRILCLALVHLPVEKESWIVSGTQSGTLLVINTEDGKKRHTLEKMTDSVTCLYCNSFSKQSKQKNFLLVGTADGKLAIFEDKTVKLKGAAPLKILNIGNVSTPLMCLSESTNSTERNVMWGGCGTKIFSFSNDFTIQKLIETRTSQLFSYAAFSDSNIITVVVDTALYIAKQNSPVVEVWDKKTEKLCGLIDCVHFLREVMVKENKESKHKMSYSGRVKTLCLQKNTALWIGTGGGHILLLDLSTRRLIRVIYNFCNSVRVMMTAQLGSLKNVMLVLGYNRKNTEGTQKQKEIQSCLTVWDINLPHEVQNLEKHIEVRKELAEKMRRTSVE

Row | Ki | SMILES
1 | 82 nM | CNc1nc(Nc2cn(-c3ccc(Cl)cc3)nc2C)ncc1C#N [Example 368, 2-(1-(4-chlorophenyl)-3-methyl-1H-pyrazol-4-ylamino)-4-(methylamino) pyrimidine-5-carbonitrile]
2 | 37.2 nM | CNc1nc(Nc2cn(C3COC3)nc2C)ncc1C#N [Example 389, 4-Methylamino-2-(3-methyl-1-oxetan-3-yl-1H-pyrazol-4-ylamino)-pyrimidine-5-carbonitrile]
3 | 66 nM | Cc1nn(C2COC2)cc1Nc1ncc(C#N)c(NCC(F)(F)F)n1 [Example 382, 2-(3-methyl-1-(oxetan-3-yl)-1H-pyrazol-4-ylamino)-4-(2,2,2-trifluoroethylamino) pyrimidine-5-carbonitrile]
4 | 5.4 nM | CCCn1cc(Nc2ncc(C#N)c(NC)n2)c(C)n1 [Example 387, 4-Methylamino-2-(3-methyl-1-propyl-1H-pyrazol-4-ylamino)-pyrimidine-5-carbonitrile]

Same assay, conditions: Table 10; LRRK2 Ki (micromolar); read-out: LRRK2 Ki (KI)

Row | Ki | SMILES
5 | 2.8 nM | CNc1nc(Nc2cn(CC(C)(C)C#N)nc2C)ncc1C(F)(F)F [Example 420, 2,2-dimethyl-3-(3-methyl-4-(4-(methylamino)-5-(trifluoromethyl)pyrimidin-2-ylamino)-1H-pyrazol-1-yl)propanenitrile]
6 | 2.3 nM | CNc1nc(Nc2cnn(C3(C#N)CC3)c2Cl)ncc1C(F)(F)F [Example 422, 1-(5-chloro-4-(4-(methylamino)-5-(trifluoromethyl)pyrimidin-2-ylamino)-1H-pyrazol-1-yl)cyclopropane-carbonitrile]

Same assay, conditions: read-out: LRRK2 Ki (KI), Table 7

Row | Ki | SMILES
7 | 1.6 nM | COc1nc(Nc2cn(-c3ccccc3)nc2C)ncc1C(F)(F)F [Example 77, (4-Methoxy-5-trifluoromethyl-pyrimidin-2-yl)-(3-methyl-1-phenyl-1H-pyrazol-4-yl)-amine]
8 | 39 nM | Cc1c(Nc2ncc(Cl)c(OC3CCOCC3)n2)cnn1C [Example 9, 5-Chloro-N-(1,5-dimethyl-1H-pyrazol-4-yl)-4-(tetrahydro-2H-pyran-4-yloxy)pyrimidin-2-amine]
9 | 27 nM | COc1nc(Nc2cnn(-c3ccccc3)c2C)ncc1Cl [Example 56, 5-chloro-4-methoxy-N-(5-methyl-1-phenyl-1H-pyrazol-4-yl)pyrimidin-2-amine]
10 | 630 nM | COc1nc(Nc2cnn(-c3ccc(C(=O)N(C)C)cc3)c2C)ncc1Cl [Example 82, 4-[4-(5-Chloro-4-methoxy-pyrimidin-2-ylamino)-5-methyl-pyrazol-1-yl]-N,N-dimethyl-benzamide]
11 | 14.4 nM | COc1nc(Nc2cn(C)nc2C)ncc1Cl [Example 15, 5-Chloro-N-(1,3-dimethyl-1H-pyrazol-4-yl)-4-methoxy-pyrimidin-2-amine]

Same assay, conditions: read-out: LRRK2 Ki (KI), Table 8

Row | Ki | SMILES
12 | 2.1 nM | CCNc1nc(Nc2cn(CC(C)(C)O)nc2C)ncc1C(F)(F)F [Example 297, 1-[4-(4-Ethylamino-5-trifluoromethyl-pyrimidin-2-ylamino)-3-methyl-pyrazol-1-yl]-2-methyl-propan-2-ol]
13 | 0.7 nM | CNc1nc(Nc2cnn(C3CCOCC3)c2Cl)ncc1C(F)(F)F [Example 226, N2-(5-chloro-1-(tetrahydro-2H-pyran-4-yl)-1H-pyrazol-4-yl)-N4-methyl-5-(trifluoromethyl) pyrimidine-2,4-diamine]
14 | 0.3 nM | CNc1nc(Nc2cn(-c3ccc(C#N)cc3)nc2C)ncc1C(F)(F)F [Example 148, 4-(3-methyl-4-(4-(methylamino)-5-(trifluoromethyl)pyrimidin-2-ylamino)-1H-pyrazol-1-yl)benzonitrile]
15 | 2 nM | CCn1ncc(Nc2ncc(C(F)(F)F)c(NC)n2)c1Cl [Example 139, N2-(5-chloro-1-ethyl-1H-pyrazol-4-yl)-N4-methyl-5-(trifluoromethyl) pyrimidine-2,4-diamine]
16 | 0.3 nM | CCNc1nc(Nc2cnn(-c3ccc(C(=O)N(C)C)cc3)c2C)ncc1C(F)(F)F [Example 157, 4-(4-(4-(ethylamino)-5-(trifluoromethyl)pyrimidin-2-ylamino)-5-methyl-1H-pyrazol-1-yl)-N,N-dimethylbenzamide]
17 | 6.1 nM | CNc1nc(Nc2cn(-c3cncnc3)nc2C)ncc1C(F)(F)F [Example 140, N4-methyl-N2-(3-methyl-1-(pyrimidin-5-yl)-1H-pyrazol-4-yl)-5-(trifluoromethyl) pyrimidine-2,4-diamine]
18 | 11.4 nM | CNc1nc(Nc2cn(-c3ncccn3)nc2C)ncc1C(F)(F)F [Example 128, N4-methyl-N2-(3-methyl-1-(pyrimidin-2-yl)-1H-pyrazol-4-yl)-5-(trifluoromethyl) pyrimidine-2,4-diamine]
19 | 9.6 nM | CNc1nc(Nc2cn(C3CCCOC3)nc2C)ncc1C(F)(F)F (stereo not shown) [Example 230, N4-methyl-N2-(3-methyl-1-(tetrahydro-2H-pyran-3-yl)-1H-pyrazol-4-yl)-5-(trifluoromethyl) pyrimidine-2,4-diamine]
20 | 1.1 nM | CNc1nc(Nc2cnn(CC(F)(F)F)c2C)ncc1Br [Example 96, 5-bromo-N4-methyl-N2-(5-methyl-1-(2,2,2-trifluoroethyl)-1H-pyrazol-4-yl)pyrimidine-2,4-diamine]
21 | 5.1 nM | CNc1nc(Nc2cn(CC(C)(C)O)nc2C2CC2)ncc1C(F)(F)F [Example 235, 1-(3-cyclopropyl-4-(4-(methylamino)-5-(trifluoromethyl)pyrimidin-2-ylamino)-1H-pyrazol-1-yl)-2-methylpropan-2-ol]
22 | 0.3 nM | CNc1nc(Nc2cn(-c3ccc(Cl)cc3)nc2C)ncc1Br [Example 260, 5-Bromo-N2-[1-(4-chloro-phenyl)-3-methyl-1H-pyrazol-4-yl]-N4-methyl-pyrimidine-2,4-diamine]
23 | 7.3 nM | CCNc1nc(Nc2cn(C3CCC(=O)N(C)C3)nc2C)ncc1C(F)(F)F (stereo not shown) [Example 152, 5-(4-(4-(ethylamino)-5-(trifluoromethyl)pyrimidin-2-ylamino)-3-methyl-1H-pyrazol-1-yl)-1-methylpiperidin-2-one]
24 | 3 nM | CNc1nc(Nc2cnn(CC(O)C(C)C)c2C)ncc1C(F)(F)F (stereo not shown) [Example 320, 3-Methyl-1-[5-methyl-4-(4-methylamino-5-trifluoromethyl-pyrimidin-2-ylamino)-pyrazol-1-yl]-butan-2-ol]
25 | 0.9 nM | CCNc1nc(Nc2cn(S(=O)(=O)C3CC3)nc2C)ncc1C(F)(F)F [Example 171, N2-(1-(cyclopropyl-sulfonyl)-3-methyl-1H-pyrazol-4-yl)-N4-ethyl-5-(trifluoromethyl) pyrimidine-2,4-diamine]
26 | 2.1 nM | Cc1c(Nc2ncc(C(F)(F)F)c(NC3CC3)n2)cnn1S(C)(=O)=O [Example 301, N4-Cyclopropyl-N2-(1-methanesulfonyl-5-methyl-1H-pyrazol-4-yl)-5-trifluoromethyl-pyrimidine-2,4-diamine]
27 | 7.1 nM | CNc1nc(Nc2cnn(C3CCN(C)CC3)c2C)ncc1C(F)(F)F [Example 210, N4-methyl-N2-(5-methyl-1-(1-methylpiperidin-4-yl)-1H-pyrazol-4-yl)-5-(trifluoromethyl) pyrimidine-2,4-diamine]
28 | 5.1 nM | CNc1nc(Nc2cnn(C3CC(C)OC(C)C3)c2C)ncc1C(F)(F)F (stereo not shown) [Example 272, N2-[1-(2,6-Dimethyl-tetrahydro-pyran-4-yl)-5-methyl-1H-pyrazol-4-yl]-N4-methyl-5-trifluoromethyl-pyrimidine-2,4-diamine]
